These results are taken from patent publication US20250368628A1, “METHODS AND COMPOUNDS FOR MODULATING INHERITED GENETIC DISEASES” (Design Therapeutics, Inc., priority 2022, published 2025).

The test system of one assay is F35T cells. Put plainly: Foci reduction in FECD (CAG10-Cy3 FISH, foci per nucleus). The assay is classed as cell-based. The method, boiled down:
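Foci per nucleus were counted by imaging after overnight CAG10-Cy3 FISH at 37 °C (30% formamide, 2×SSC) with DAPI counterstain, on PFA-fixed, ethanol-permeabilized F35T cells. The cells, seeded at 5000 per well in supplemented Opti-MEM, had received 8-point compound dilutions for 48 h at 37 °C.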

For assay [1], the system named is Myotonic Dystrophy 1 affected patient fibroblasts (Coriel GM04602; 1600 CTG repeats). Put plainly: DM1 foci reduction assay (EC50 assay; CAG10-Cy3 FISH, foci per nucleus). The assay is classed as cell-based. A digest of the protocol: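 Foci per nucleus counted by 20× imaging of 4 areas per well, after overnight FISH with 5 nM CAG10-Cy3 and DAPI staining of fixed, permeabilized cells. DM1 fibroblasts (GM04602, 1600 CTG) were dosed 48 h at 37 °C, 8 points, 3-fold dilutions, 3 μM top concentration.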

Where [2] appears, read: F35T cells, 48 h treatment, foci per nucleus; read-out: FECD EC50, 48 h.
Setting [3] is: Homo sapiens, Fibroblast; DM1 patient fibroblasts, 48 h treatment, foci per nucleus; read-out: DM1 EC50, 48 h.

The term EC50 denotes the concentration that produces a half-maximal response.

Read-outs that look alike come from different tables or passages of the source.

In the case of `CN1CCC(C#CC#CC2CCN(CCOCCOCCOCCNC(=O)CCNC(=O)c3nc(NC(=O)c4cc(NC(=O)CCNC(=O)c5nc(NC(=O)CCCNC(=O)c6cc(NC(=O)c7nc(NC(=O)CCNC(=O)c8cc(NC(=O)c9nccn9C)cn8C)cn7C)cn6C)cn5C)cn4C)cn3C)CC2)CC1` [Compound B-125], the EC50 (in the assay with F35T cells (setting [2]); in assay [1] (setting [3])) was 100 to 500 nM throughout.

Turning to `Cn1cc(NC(=O)c2nc(NC(=O)CCNC(=O)c3cc(NC(=O)c4nccn4C)cn3C)cn2C)cc1C(=O)NCCCC(=O)Nc1cn(C)c(C(=O)NCCC(=O)Nc2cc(C(=O)Nc3cn(C)c(C(=O)NCCCN(C(=O)OC(C)(C)C)C(CO)CO)n3)n(C)c2)n1` [Compound B-390], the EC50 (with F35T cells (setting [2]); in assay [1] (setting [3])) was 100 to 500 nM throughout.

Take `COCCOCCOCCOCCN(CCCCCn1cc(NC(=O)c2nc(NC(=O)CCNC(=O)c3cc(NC(=O)c4nccn4C)cn3C)cn2C)cc1C(=O)NCCCC(=O)Nc1cn(C)c(C(=O)NCCC(=O)Nc2cc(C(=O)Nc3cn(C)c(C(=O)NCCC(=O)NCCOCCOCCOCCN4CCC(C#CC#CC5CCNCC5)CC4)n3)n(C)c2)n1)CCOCCOCCOCCOC` [Compound B-227]: the concentration for a half-maximal effect (EC50) (with F35T cells (setting [2]); in assay [1] (setting [3])) was greater than 1000 nM throughout.

As for `CCCNC(=O)c1nc(NC(=O)c2cc(NC(=O)CCNC(=O)c3nc(NC(=O)CCCNC(=O)c4cc(NC(=O)c5nc(NC(=O)CCNC(=O)c6cc(NC(=O)c7nccn7C)cn6C)cn5C)cn4C)cn3C)cn2C)cn1C` [Compound B-43], the EC50 (in the assay with F35T cells (setting [2]); in assay [1] (setting [3])) was less than 100 nM in each case.

Turning to `COCCOCCOCCOCCN(CCOCCOCCOCCOC)C(=O)CCCCn1cc(NC(=O)c2nc(NC(=O)CCNC(=O)c3cc(NC(=O)c4nccn4C)cn3C)cn2C)cc1C(=O)NCCCC(=O)Nc1cn(C)c(C(=O)NCCC(=O)Nc2cc(C(=O)Nc3cn(C)c(C(=O)NCCC(=O)N4CCC(C#CC#CC5CCNCC5)CC4)n3)n(C)c2)n1` [Compound B-260], the EC50 (with F35T cells (setting [2]); in assay [1] (setting [3])) was 100 to 500 nM throughout.

With `CC(=O)N1CCC(C#CC#CC2CCN(C(=O)CCNC(=O)c3nc(NC(=O)c4cc(NC(=O)CCNC(=O)c5nc(NC(=O)CCCNC(=O)c6cc(NC(=O)c7nc(NC(=O)CCNC(=O)c8cc(NC(=O)c9nccn9C)cn8C)cn7C)cn6CCOCCN)cn5C)cn4C)cn3C)CC2)CC1` [Compound B-296], the half-maximal effective concentration (EC50) (in the assay with F35T cells (setting [2]); in assay [1] (setting [3])) was less than 100 nM in each case.

As to `Cn1cc(NC(=O)c2nc(NC(=O)CCNC(=O)c3cc(NC(=O)c4nccn4C)cn3C)cn2C)cc1C(=O)NCCCC(=O)Nc1cn(C)c(C(=O)NCCC(=O)Nc2cc(C(=O)Nc3cn(C)c(C(=O)NCCCCN=[N+]=[N-])n3)n(C)c2)n1` [Compound B-203], the concentration for a half-maximal effect (EC50) (with F35T cells (setting [2]); in assay [1] (setting [3])) was less than 100 nM throughout.

Consider `CCOC(=O)CCNC(=O)c1nc(NC(=O)c2cc(NC(=O)CCNC(=O)c3nc(NC(=O)[C@H](N)CCNC(=O)c4cc(NC(=O)c5nc(NC(=O)CCNC(=O)c6cc(NC(=O)c7nccn7C)cn6C)cn5C)cn4C)cn3C)cn2C)cn1C` [Compound B-2], for which the 50% effective concentration (EC50) (with F35T cells (setting [2]); in assay [1] (setting [3])) was 100 to 500 nM each time.

Regarding `CN(C)CCCCNC(=O)c1nc(NC(=O)c2cc(NC(=O)CCNC(=O)c3nc(NC(=O)[C@H](N)CCNC(=O)c4cc(NC(=O)c5nc(NC(=O)CCNC(=O)c6cc(NC(=O)c7nccn7C)cn6C)cn5C)cn4C)cn3C)cn2C)cn1C` [Compound B-410], the EC50 in the assay on F35T cells (F35T cells, foci per nucleus, 48 h treatment; read-out: FECD EC50, 48 h) was greater than 1000 nM; in assay [1] (Homo sapiens, Fibroblast; DM1 patient fibroblasts, foci per nucleus, 48 h treatment; read-out: DM1 EC50, 48 h), 500 to 1000 nM.

Regarding `CCCNC(=O)CCNC(=O)c1nc(NC(=O)c2cc(NC(=O)CCNC(=O)c3nc(NC(=O)CCCNC(=O)c4cc(NC(=O)c5nc(NC(=O)CCNC(=O)c6cc(NC(=O)c7nccn7C)cn6C)cn5C)cn4CCCOCCN)cn3C)cn2C)cn1C` [Compound B-301], the EC50 with F35T cells (setting [2]) is less than 100 nM; in assay [1] (setting [3]), 100 to 500 nM.

As for `CCCNC(=O)CCNC(=O)c1nc(NC(=O)c2cc(NC(=O)CCNC(=O)c3nc(NC(=O)CCCNC(=O)c4cc(NC(=O)c5nc(NC(=O)CCNC(=O)c6cc(NC(=O)c7nccn7C)cn6C)cn5C)cn4CCCCCNC(=O)C(C)(C)C)cn3C)cn2C)cn1C` [Compound B-398], the EC50 (in the assay on F35T cells (setting [2]); in assay [1] (setting [3])) was 100 to 500 nM in each case.
